Measurements reported in PMC5607274, “An iterative compound screening contest method for identifying target protein inhibitors using the tyrosine-protein kinase Yes” (Scientific Reports, 2017).

Target: T1, human recombinant Yes [a.a. 2–543 (end)] (Homo sapiens, UniProt P07947)
T1 construct: human recombinant Yes [a.a; 2–543 (end)]; purchased BPS Bioscience 40488
Experiment: ADP-Glo kinase assay, inhibition rates of Yes phosphorylation activity (first and second screening)
Format: biochemical
Settings: 10 μmol L−1 compound; for First screening IR (inhibition rate): mean of n = 4 wells; for Second screening IR (inhibition rate): dissolved from fresh powder, n = 4
Summary of the method: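 ADP-Glo luminescence measured inhibition of human recombinant Yes (a.a. 2–543) phosphorylation activity. In the first screen, each compound ran in 4 wells and inhibition rates were averaged. The second screen retested hits as compounds dissolved from fresh powder.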

T1 sequence (P07947 2-543): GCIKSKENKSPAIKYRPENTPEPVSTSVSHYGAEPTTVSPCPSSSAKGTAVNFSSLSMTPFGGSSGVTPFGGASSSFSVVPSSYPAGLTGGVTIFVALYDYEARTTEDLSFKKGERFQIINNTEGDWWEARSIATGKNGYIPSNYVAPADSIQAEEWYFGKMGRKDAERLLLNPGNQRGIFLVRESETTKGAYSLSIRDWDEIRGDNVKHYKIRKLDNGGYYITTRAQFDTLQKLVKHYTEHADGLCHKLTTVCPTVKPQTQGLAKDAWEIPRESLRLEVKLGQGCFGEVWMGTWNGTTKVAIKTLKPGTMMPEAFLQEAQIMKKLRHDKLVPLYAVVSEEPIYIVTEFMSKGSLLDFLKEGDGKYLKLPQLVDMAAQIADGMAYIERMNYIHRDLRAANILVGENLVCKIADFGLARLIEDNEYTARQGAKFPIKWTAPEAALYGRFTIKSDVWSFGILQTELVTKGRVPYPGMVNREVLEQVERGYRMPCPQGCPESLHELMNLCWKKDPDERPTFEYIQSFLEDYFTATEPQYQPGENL

Row | Structure (SMILES) | First screening IR (inhibition rate) [%] | Second screening IR (inhibition rate) [%]
1 | Cn1nc(C2CCC2)cc1NC(=O)c1cc(Br)cnc1Cl [Compound Z1433129748] | 0 | –
2 | Clc1ccc(C2=NN/C(=N/c3ccccn3)SC2)s1 [Compound Z1446648080] | 8 | –
3 | NC(=O)c1cc(NC(=O)c2cccnc2Nc2cccc(F)c2)n[nH]1 [Compound Z1451063255] | 2 | –
4 | CNC1CCN(C(=O)c2ccc3c(c2)ncn3C(C)C)C1.Cl.Cl (centres unmarked) [Compound Z1455845707] | 13 | –
5 | Cl.O=C(NCCC1CCCNC1)c1c(F)cccc1Br (centres unmarked) [Compound Z1457134316] | -2 | –
6 | CN1CCN(C(=O)c2ccc(-c3cc(F)c(F)c(F)c3)cc2)C(CN)C1.Cl (centres unmarked) [Compound Z1457890473] | 13 | –
7 | Cc1ccn2c(CNc3cc(C(N)=O)cc(F)c3C)cnc2c1 [Compound Z1462541066] | 33 | -26
8 | Fc1cc(NCc2cn[nH]c2-c2cccnc2)ccc1-n1ccnc1 [Compound Z1462562385] | 10 | –
9 | CN(C)C(=O)Cc1ccccc1NCc1ccc(-n2ccnc2)cc1 [Compound Z1462566317] | 13 | –
10 | O=C(OCCc1cn[nH]c1)c1ncoc1-c1ccco1 [Compound Z1463415737] | 57 | –
11 | Cc1nc(C2CCCN(C(=O)c3cncc(-c4ccc5c(c4)CCO5)c3)C2)n[nH]1 (centres unmarked) [Compound Z1464424071] | -4 | –
12 | COC(=O)c1cnc(N2CCCCC2)cc1N1CCCCC1 [Compound Z1465442209] | 0 | –
13 | N#CCCN(CCN1CCOCC1)Cc1cn[nH]c1-c1c(F)cccc1F [Compound Z1470747510] | -6 | –
14 | CCN(C(=O)c1ccc2c(c1)CC(c1ccccc1)OC2=O)c1ncc[nH]1 (centres unmarked) [Compound Z1474089033] | -8 | –
15 | COc1ccc2[nH]c(C)c(C(=O)NCC(C)(C)c3cccc(F)c3)c2c1 [Compound Z1482480186] | 70 | –
16 | CC1CCN(Cc2ncc(-c3cccc(Cl)c3)o2)CC1n1ccnc1 (centres unmarked) [Compound Z1492998619] | 33 | –
17 | CC1c2cc(Cl)cc(Cl)c2CCN1C(=O)c1cnc2n1CCCC2 (centres unmarked) [Compound Z1494913871] | 13 | –
18 | CC1CCN(C(=O)c2nc3ncc(Br)cn3n2)CC(C)C1 (centres unmarked) [Compound Z1500127626] | 1 | –
19 | CN(C)C(C)(C)CNC(=O)Cc1c[nH]c2cccc(Br)c12 [Compound Z1509620411] | -4 | –
20 | CC(C)c1cc(C(=O)N(C)C2CCCCC2N(C)C(=O)c2cc(C(C)C)[nH]n2)n[nH]1 (centres unmarked) [Compound Z1511609753] | 5 | –
21 | Cc1nccn1-c1cncc(NCCOCCS(C)(=O)=O)n1 [Compound Z1513517715] | 17 | –
22 | Cc1cnc(COC(=O)c2cc(-c3ccccn3)ccc2Cl)cn1 [Compound Z1514764424] | -4 | –

Row | Structure (SMILES) | First screening IR (inhibition rate) [%] | Second screening IR (inhibition rate) [%]
23 | CC(=O)c1cccc(COC(=O)c2n[nH]c3c2CCCC3)c1 [Compound Z1515387931] | -3 | –
24 | NS(=O)(=O)C1CC=CCC1 (centres unmarked) [Compound Z1517090453] | 1 | –
25 | Cc1c(/C=C2/C(=O)Nc3ccc(F)cc32)cnn1C [Compound Z1517268554] | 31 | 16
26 | COC(=O)Cn1ncc2c(N3CCCC34CCCCC4)ncnc21 [Compound Z1527076116] | -3 | –
27 | Cn1nc(Br)c2c(N3CCCC34CCCCC4)ncnc21 [Compound Z1527076521] | 38 | –
28 | CC(NCc1ccc(CN2CCN(C)CC2)cc1)c1cccc(CO)c1 (centres unmarked) [Compound Z1532484795] | -4 | –
29 | CCn1ncc2c(C(=O)NCC(C)(O)C(F)(F)F)cc(-c3cccs3)nc21 (centres unmarked) [Compound Z1535762010] | -4 | –
30 | Cc1nccn1-c1ccc(C(C)Nc2ncnc3nc(N)ccc23)cc1 (centres unmarked) [Compound Z1537172697] | 53 | –
31 | Cc1cccc(NC2CCN(C(=O)c3c[nH]c4cccc(F)c34)CC2)n1 [Compound Z1538193381] | 3 | –
32 | O=S1(=O)CCC(CNS(=O)(=O)c2c[nH]c3nccc(Cl)c23)C1 (centres unmarked) [Compound Z1547285504] | -14 | –
33 | CCc1cc(N2CCC(NCc3c(Cl)cccc3N3CCCC3)CC2)ncn1 [Compound Z1549038619] | 0 | –
34 | Cc1ccc(S(=O)(=O)C2CS(=O)(=O)CC2O)c(C)c1 (centres unmarked) [Compound Z1549639934] | -1 | –
35 | CC(C)c1cc(NS(=O)(=O)c2cc(F)c(Br)cc2F)n[nH]1 [Compound Z1551172092] | 5 | –
36 | O=C1NCc2cccc(NS(=O)(=O)c3c(Cl)ccnc3Cl)c21 [Compound Z1556993367] | -3 | –
37 | Cc1cc(N2CCN(C(=O)Nc3cc(C)c4cn[nH]c4c3)CC2)nc(C)n1 [Compound Z1557589830] | 42 | –
38 | Cc1nc(CN)ccc1C(=O)Nc1ccc(Oc2ccc(Cl)cc2Cl)c(F)c1.Cl [Compound Z1561183584] | -5 | –
39 | CC(C)(C)Oc1cccc(CN2CCC(c3c[nH]c4ncccc34)CC2)n1 [Compound Z1564730073] | 12 | –
40 | CC1CN(C(=O)C2CCS(=O)(=O)C2)c2cc(F)ccc2CN1C(=O)OC(C)(C)C (centres unmarked) [Compound Z1566941984] | -8 | –
41 | CN(C)c1nccc(N2CCN(Cc3ccc(Cl)o3)CC2)n1 [Compound Z1569249080] | 27 | –
42 | Cn1c(=O)c2ccc(C(=O)NCc3cc(Cl)ccn3)nc2n(C)c1=O [Compound Z1574547064] | -2 | –
43 | CC(C)(C)c1ccc(NC(=O)/C=C/c2cncc(O)c2)cc1 [Compound Z1574815119] | 6 | –
44 | Cc1ccc([N+](=O)[O-])c(N2CCC(NCCO)CC2)c1 [Compound Z1576995201] | -9 | –

Row | Structure (SMILES) | First screening IR (inhibition rate) [%] | Second screening IR (inhibition rate) [%]
45 | Cc1nccn1-c1cncc(N2CCC3(CCCC3)CC2)n1 [Compound Z1578863056] | 34 | 0
46 | CC1CN(C(=O)OC(C)(C)C)C(C)CN1C(=O)Cc1csc(N2CCNC2=O)n1 (centres unmarked) [Compound Z1579018538] | 2 | –
47 | CC(NCc1ccnc(OC2CCOC2)c1)c1cccc(F)c1 (centres unmarked) [Compound Z1583197068] | 21 | –
48 | CCCn1nccc1NC(=O)CN(C)C(C)c1cccc(-c2ccncc2)c1 (centres unmarked) [Compound Z1587266149] | 17 | –
49 | Cc1n[nH]c(C)c1C1CCCCCN1C(=O)Nc1cnc(N(C)C)nc1 (centres unmarked) [Compound Z1590996465] | -1 | –
50 | Cc1cc(S(=O)(=O)N(C)CC(=O)N2CCC(O)CC2)cnc1Cl [Compound Z1591866613] | -1 | –
51 | Cc1cc(C(NCC(=O)Nc2cccc(C(=O)N(C)C)c2)C(C)C)c(C)s1 (centres unmarked) [Compound Z1592563027] | -2 | –
52 | CC(CN(C)Cc1ccccc1)Nc1nc(N)c2ccccc2n1 (centres unmarked) [Compound Z1593120476] | -10 | –
53 | COCc1nnc(-c2cccc(-c3nc(-c4cccs4)no3)c2)o1 [Compound Z1601587562] | 11 | –
54 | CC(O)(CNc1ccnc2c(F)cc(Br)cc12)CN1CCOCC1 (centres unmarked) [Compound Z1601616896] | -21 | –
55 | O=C(NCC(Cc1ccccc1)C(=O)O)c1ccc(-n2ccnc2)cc1 (centres unmarked) [Compound Z1603513622] | 15 | –
56 | CN(CCCc1nc2ccccc2[nH]1)C(=O)c1ccc(O)cc1F [Compound Z1614685203] | 9 | –
57 | N#Cc1ccc(C(=O)OCc2ccc(Br)cn2)[nH]1 [Compound Z1616590793] | 9 | –
58 | Cc1cc(NCc2nnc(C)n2C)c(C(N)=O)cc1F [Compound Z1618388683] | -35 | –
59 | NC(=O)c1ccc2[nH]cc(C3CCN(C(=O)c4cccs4)CC3)c2c1 [Compound Z1624201749] | -35 | –
60 | Cc1cc(N2CCCC(N3CCN(C(=O)c4ccncc4)CC3)C2=O)n(C)n1 (centres unmarked) [Compound Z1629496420] | 17 | –
61 | COc1cc(Br)c(CN(C)CCc2cnccn2)c(OC)c1 [Compound Z1632805805] | 7 | –
62 | CC1CC(CNC(=O)c2cccc(O)c2)CN1Cc1ccccc1 (centres unmarked) [Compound Z1633590863] | 1 | –
63 | Cn1c(=O)[nH]c(=O)c2cc(C(=O)OCCNc3ncccc3C#N)cnc21 [Compound Z1633934253] | -1 | –
64 | COc1cc(/C=C/C(=O)N2CCCC2c2c(C)nn(C)c2C)cc(Br)c1O (centres unmarked) [Compound Z1634598040] | 41 | –
65 | Cc1ccc(-c2noc(/C=C/c3cncc(O)c3)n2)cc1F [Compound Z1642148240] | -4 | –
